# Reference: PubChem BioAssay (NCI)
#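 Grown in 96-well plates, cells were treated for 48 hours with each compound at five concentrations. Insufficient inhibition: endpoint recorded as highest concentration tested. The concentration for 50% growth inhibition is given as GI50. TGI is the concentration that stops growth completely.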
# What was measured:
# Test in all cases: NCI-60 cell line screen, 48 h
# [1] = system: 786-0 renal
# [2] = system: A498 renal
# [3] = system: A549 NSCLC
# [4] = system: ACHN renal
# [5] = system: BT-549 breast
# [6] = system: CAKI-1 renal
# [7] = system: CCRF-CEM leukemia
# [8] = system: COLO 205 colon
# [9] = system: DU-145 prostate
# [10] = system: EKVX NSCLC
# [11] = system: HCC-2998 colon
# [12] = system: HCT-116 colon
# [13] = system: HCT-15 colon
# [14] = system: HL-60(TB) leukemia
# [15] = system: HOP-62 NSCLC
# [16] = system: HOP-92 NSCLC
# [17] = system: HS 578T breast
# [18] = system: HT29 colon
# [19] = system: IGROV1 ovarian
# [20] = system: K-562 leukemia
# [21] = system: KM12 colon
# [22] = system: LOX IMVI melanoma
# [23] = system: M14 melanoma
# [24] = system: MALME-3M melanoma
# [25] = system: MCF7 breast
# [26] = system: MDA-MB-231 breast
# [27] = system: MDA-MB-435
# [28] = system: MDA-MB-468 breast
# [29] = system: MOLT-4 leukemia
# [30] = system: NCI-H226 lung
# [31] = system: NCI-H23 lung
# [32] = system: NCI-H460 lung
# [33] = system: NCI-H522 lung
# [34] = system: OVCAR-3 ovarian
# [35] = system: OVCAR-4 ovarian
# [36] = system: OVCAR-5 ovarian
# [37] = system: OVCAR-8 ovarian
# [38] = system: PC-3 prostate
# [39] = system: RPMI-8226 leukemia
# [40] = system: RXF 393 renal
# [41] = system: SF-268 CNS
# [42] = system: SF-295 CNS
# [43] = system: SF-539 CNS
# [44] = system: SK-MEL-2 melanoma
# [45] = system: SK-MEL-28 melanoma
# [46] = system: SK-MEL-5 melanoma
# [47] = system: SK-OV-3 ovarian
# [48] = system: SN12C renal
# [49] = system: SNB-19 CNS
# [50] = system: SNB-75 CNS
# [51] = system: SR leukemia
# [52] = system: SW-620 colon
# [53] = system: T-47D breast
# [54] = system: TK-10 renal
# [55] = system: U251 CNS
# [56] = system: UACC-257 melanoma
# [57] = system: UACC-62 melanoma
# [58] = system: UO-31 renal
compound,measurement,setting,value
COc1ccc([C@H]2C(C(=O)c3ccc(Cl)cc3)C3(N[C@@H]2c2ccccc2)C(=O)Nc2ccc(Cl)cc23)cc1 (stereo partly specified),GI50,[1],5.11 µM
same,TGI,[1],20 µM
same,GI50,[2],8.68 µM
same,TGI,[2],22.4 µM
same,GI50,[3],2400 nM
same,TGI,[3],13.7 µM
same,GI50,[4],2320 nM
same,TGI,[4],17.9 µM
same,GI50,[5],6.91 µM
same,TGI,[5],14.6 µM
same,GI50,[6],1530 nM
same,TGI,[6],15.1 µM
same,GI50,[7],3.32 µM
same,TGI,[7],25.1 µM
same,GI50,[8],6.72 µM
same,TGI,[8],14.5 µM
same,GI50,[9],7.91 µM
same,TGI,[9],27 µM
same,GI50,[10],6.43 µM
same,TGI,[10],30.7 µM
same,GI50,[11],2090 nM
same,TGI,[11],8.15 µM
same,GI50,[12],2620 nM
same,TGI,[12],10.5 µM
same,GI50,[13],3.86 µM
same,TGI,[13],12.7 µM
same,GI50,[14],4.1 µM
same,TGI,[14],22.2 µM
same,GI50,[15],6.75 µM
same,TGI,[15],14.5 µM
same,GI50,[16],2380 nM
same,TGI,[16],10.7 µM
same,GI50,[17],7.49 µM
same,TGI,[17],24.9 µM
same,GI50,[18],2200 nM
same,TGI,[18],8.71 µM
same,GI50,[19],3.54 µM
same,TGI,[19],13.7 µM
same,GI50,[20],2310 nM
same,TGI,[20],57.5 µM
same,GI50,[21],2440 nM
same,TGI,[21],12.8 µM
same,GI50,[22],2750 nM
same,TGI,[22],14 µM
same,GI50,[23],2990 nM
same,TGI,[23],12.7 µM
same,GI50,[24],8.38 µM
same,TGI,[24],16.1 µM
same,GI50,[25],1910 nM
same,TGI,[25],13.1 µM
same,GI50,[26],4.87 µM
same,TGI,[26],12.2 µM
same,GI50,[27],4.02 µM
same,TGI,[27],14.5 µM
same,GI50,[28],7.07 µM
same,TGI,[28],19.8 µM
same,GI50,[29],1950 nM
same,TGI,[29],56.6 µM
same,GI50,[30],6.64 µM
same,TGI,[30],14.8 µM
same,GI50,[31],6.19 µM
same,TGI,[31],16.2 µM
same,GI50,[32],2500 nM
same,TGI,[32],9.26 µM
same,GI50,[33],5.24 µM
same,TGI,[33],14.3 µM
same,GI50,[34],6.39 µM
same,TGI,[34],23.1 µM
same,GI50,[35],5.77 µM
same,TGI,[35],27.1 µM
same,GI50,[36],6.48 µM
same,TGI,[36],14.1 µM
same,GI50,[37],4.98 µM
same,TGI,[37],14 µM
same,GI50,[38],1990 nM
same,TGI,[38],10.6 µM
same,GI50,[39],3.62 µM
same,TGI,[39],48 µM
same,GI50,[40],2930 nM
same,TGI,[40],12 µM
same,GI50,[41],3.21 µM
same,TGI,[41],38 µM
same,GI50,[42],3.08 µM
same,TGI,[42],13.1 µM
same,GI50,[43],7.28 µM
same,TGI,[43],16.6 µM
same,GI50,[44],6.16 µM
same,TGI,[44],13.4 µM
same,GI50,[45],6.47 µM
same,TGI,[45],13.6 µM
same,GI50,[46],9.38 µM
same,TGI,[46],17.9 µM
same,GI50,[47],11.5 µM
same,TGI,[47],38.4 µM
same,GI50,[48],3 µM
same,TGI,[48],10.4 µM
same,GI50,[49],6.5 µM
same,TGI,[49],46.5 µM
same,GI50,[50],2820 nM
same,TGI,[50],27.2 µM
same,GI50,[51],2080 nM
same,TGI,[51],20.5 µM
same,GI50,[52],5.33 µM
same,TGI,[52],21.5 µM
same,GI50,[53],2610 nM
same,TGI,[53],13.4 µM
same,GI50,[54],7.42 µM
same,TGI,[54],19.8 µM
same,GI50,[55],5.5 µM
same,TGI,[55],13 µM
same,GI50,[56],6.69 µM
same,TGI,[56],18.6 µM
same,GI50,[57],2130 nM
same,TGI,[57],9.36 µM
same,GI50,[58],1740 nM
same,TGI,[58],10.8 µM
